# Experimental data published in PubChem BioAssay AID1357 (Sanford-Burnham Center for Chemical Genomics, 2008).
# Active and inactive are the calls of the source.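 Rule for the calls: active = no band for the stress protein CHOP on the immunoblot after the stress trigger, its induction blocked; inactive = CHOP band still seen after the stress trigger.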
# Test system: CSM14.1 cells, thapsigargin-induced CHOP Western blot
# Test: blocking ER stress CHOP protein upregulation – thapsigargin stimulus, CSM14.1 cells, Western blot, mechanism study for ER stress cell death inhibitors (AID 1357)
row,SMILES,outcome
1,COc1ccc(C2CC(=O)C3=C(C2)Nc2ccccc2NC3c2cccc(Oc3ccccc3)c2)cc1OC (stereo unspecified),inactive
2,COc1ccc(C2CC(=O)C3=C(C2)Nc2ccccc2NC3c2ccccc2C(F)(F)F)cc1OC (stereo unspecified),inactive
3,CCOc1cccc(C2Nc3ccccc3NC3=C2C(=O)CC(c2ccc(OC)cc2)C3)c1 (stereo unspecified),inactive
4,COc1ccc(C2CC(=O)C3=C(C2)Nc2ccccc2NC3c2cc(C)ccc2C)cc1 (stereo unspecified),inactive
5,COc1ccc(C2CC(=O)C3=C(C2)Nc2ccccc2NC3c2cccc(Br)c2)cc1OC (stereo unspecified),inactive
6,CSc1ccc(C2Nc3ccccc3NC3=C2C(=O)CC(c2ccccc2)C3)cc1 (stereo unspecified),inactive
7,O=C1CC(c2ccccc2)CC2=C1C(c1c(F)cccc1Cl)Nc1ccccc1N2 (stereo unspecified),inactive
8,CCCOc1ccc(C2Nc3ccccc3NC3=C2C(=O)CC(c2ccc(OC)c(OC)c2)C3)cc1 (stereo unspecified),inactive
9,CC1(C)CC(=O)C2=C(C1)Nc1ccccc1NC2c1ccc(-c2ccccc2)cc1 (stereo unspecified),inactive
10,COc1ccc(C2CC(=O)C3=C(C2)Nc2ccccc2NC3c2cccc(C(F)(F)F)c2)cc1OC (stereo unspecified),inactive
11,CCOc1cc(C2Nc3ccccc3NC3=C2C(=O)CC(c2ccc(OC)cc2)C3)cc(Cl)c1O (stereo unspecified),inactive
